The test deals with U87 cells. Briefly: Flow cytometry detection of PPIX in U87 cells exposed to 5-ALA. Format: cell-based. The following applies: serum-free, 5-ALA 250 μg/ml, excitation 406 nm, filter 610/20. As to the method:
U87 cells representative of GBM tumors grown in T-75 flasks, in the absence of serum, were exposed to 5-aminolevulinic acid ([…]; 250 μg/ml) for 4 or 24 hours. Following exposure, cells were subjected to fluorescent excitation in a LSRII flow cytometer with an excitation at 406 nm violet wave length. Filter specifications were set at either 450/50, or set at 610/20 for the detection of protoporphyrin IX (PPIX).
On the technique in general: A flow cytometer gives signals particle by particle.

Take `NCC(=O)CCC(=O)O` [5-ALA, 5-aminolevulinic acid]: the “mean fluorescence index (MFI), PPIX” value is, setting by setting: (4 hours) “MFI increased”; (24 hours) “MFI increased”.

These data come from patent US11307204B2, “5-ALA for detection of brain tumors” (PIOMA, INC., priority 2012, dated 2022).
